Measured values taken from paper PMC12922749 (Science Advances, 2026).
Read-outs that look alike come from different tables or passages of the source. Blank lines part the entries; values can stand above or below the compound they belong to.

Assays:
Test in all cases: SPR
Assay type in all cases: binding
Nur77 [1] = target: Nur77
Nur77 [2] = target: Nur77; remark: listed apart in the source
Nur77 [3] = target: Nur77; remark: listed apart in the source

- Kd (Nur77 [1]): 1.44 µM
Compound: CCCCC/C=C\C[C@@H](O)/C=C/C=C\C/C=C\CCCC(=O)O [12R-HETE]

- Kd (Nur77 [2]): 13.9 µM
Compound: CCCCC/C=C\C[C@H](O)/C=C/C=C\C/C=C\CCCC(=O)O [12S-HETE]

- Kd (Nur77 [3]): 28.9 µM
Compound: CCCCCCCC(=O)c1c(O)cc(O)cc1CC(=O)OCC [Cytosporone B]
